From patent US20260297081A1, “COMPOUNDS AND METHODS OF TREATING CANCERS” (Cullgen Inc., priority 2023, published 2026) come the findings set out here.

Assay type in all cases: cell-based
For experiment [1], the system named is T47D cells. Put plainly: Anti-proliferation (viability) of ER+ breast cancer T47D cells, 6 days (Table 7, FIG. 2B). The settings on record: Homo sapiens, 144 h; T47D cells, 6 days, 10-point serial dilution; read-out: GI IC50 in T47D. How it is done: To evaluate anti-proliferation activities of heterobifunctional compounds, NSCLC Calu-1 or ER+ breast cancer T47D cells were treated with selected heterobifunctional compounds following a 10-point serial dilution for 3 or 6 days, respectively.
To verify that heterobifunctional compound-mediated degradation is dependent on the binding to CDK4-cyclin D complex, a negative control compound, CPD-143, which is derived from active heterobifunctional compound CPD-10 was designed. CPD-143 bears the same DDB1 ligand and linker as CPD-10 but with a modified warhead to impair the binding of the control compound to CDK4.

For experiment [2], the target named is T1, CDK4 (Homo sapiens, UniProt P11802+Q16531). Nature of the experiment: CDK4 percentage degradation in Calu-1 cells (Table 6). Further details: Cells that express cyclin D1-3 and CDK4/6 proteins were treated with heterobifunctional compounds; endogenous in cells; host or cells: Calu-1. The settings on record: 16 hours; for inhibition at 0.04 µM: 40 nM; for inhibition at 0.2 µM: 200 nM. The gist of the method: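 Percentage degradation of Cyclin D1 and CDK4 derived from densitometry of ECL Western blots on lysates of Calu-1 cells. Treatment was 16 h with compound at either 40 nM or 200 nM.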
Target sequence in this assay (P11802 2-303 limits assumed): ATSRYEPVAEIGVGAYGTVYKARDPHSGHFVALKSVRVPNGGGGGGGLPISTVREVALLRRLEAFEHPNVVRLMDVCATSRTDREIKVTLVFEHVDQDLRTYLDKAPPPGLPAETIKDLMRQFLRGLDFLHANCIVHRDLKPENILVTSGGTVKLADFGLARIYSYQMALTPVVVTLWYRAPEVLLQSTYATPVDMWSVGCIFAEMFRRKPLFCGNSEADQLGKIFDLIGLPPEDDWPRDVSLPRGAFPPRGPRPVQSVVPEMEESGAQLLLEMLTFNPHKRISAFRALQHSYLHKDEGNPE
Target sequence in this assay (P24385 whole entry partner): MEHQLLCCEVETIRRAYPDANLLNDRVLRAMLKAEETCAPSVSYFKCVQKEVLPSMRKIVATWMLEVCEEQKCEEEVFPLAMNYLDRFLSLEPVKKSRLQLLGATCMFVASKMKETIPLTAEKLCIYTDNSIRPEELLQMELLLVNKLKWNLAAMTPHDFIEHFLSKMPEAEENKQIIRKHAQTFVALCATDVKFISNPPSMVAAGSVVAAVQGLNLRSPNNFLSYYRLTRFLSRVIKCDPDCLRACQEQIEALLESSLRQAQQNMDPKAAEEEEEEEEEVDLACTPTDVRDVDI
Target sequence in this assay (Q16531 2-1140 limits assumed): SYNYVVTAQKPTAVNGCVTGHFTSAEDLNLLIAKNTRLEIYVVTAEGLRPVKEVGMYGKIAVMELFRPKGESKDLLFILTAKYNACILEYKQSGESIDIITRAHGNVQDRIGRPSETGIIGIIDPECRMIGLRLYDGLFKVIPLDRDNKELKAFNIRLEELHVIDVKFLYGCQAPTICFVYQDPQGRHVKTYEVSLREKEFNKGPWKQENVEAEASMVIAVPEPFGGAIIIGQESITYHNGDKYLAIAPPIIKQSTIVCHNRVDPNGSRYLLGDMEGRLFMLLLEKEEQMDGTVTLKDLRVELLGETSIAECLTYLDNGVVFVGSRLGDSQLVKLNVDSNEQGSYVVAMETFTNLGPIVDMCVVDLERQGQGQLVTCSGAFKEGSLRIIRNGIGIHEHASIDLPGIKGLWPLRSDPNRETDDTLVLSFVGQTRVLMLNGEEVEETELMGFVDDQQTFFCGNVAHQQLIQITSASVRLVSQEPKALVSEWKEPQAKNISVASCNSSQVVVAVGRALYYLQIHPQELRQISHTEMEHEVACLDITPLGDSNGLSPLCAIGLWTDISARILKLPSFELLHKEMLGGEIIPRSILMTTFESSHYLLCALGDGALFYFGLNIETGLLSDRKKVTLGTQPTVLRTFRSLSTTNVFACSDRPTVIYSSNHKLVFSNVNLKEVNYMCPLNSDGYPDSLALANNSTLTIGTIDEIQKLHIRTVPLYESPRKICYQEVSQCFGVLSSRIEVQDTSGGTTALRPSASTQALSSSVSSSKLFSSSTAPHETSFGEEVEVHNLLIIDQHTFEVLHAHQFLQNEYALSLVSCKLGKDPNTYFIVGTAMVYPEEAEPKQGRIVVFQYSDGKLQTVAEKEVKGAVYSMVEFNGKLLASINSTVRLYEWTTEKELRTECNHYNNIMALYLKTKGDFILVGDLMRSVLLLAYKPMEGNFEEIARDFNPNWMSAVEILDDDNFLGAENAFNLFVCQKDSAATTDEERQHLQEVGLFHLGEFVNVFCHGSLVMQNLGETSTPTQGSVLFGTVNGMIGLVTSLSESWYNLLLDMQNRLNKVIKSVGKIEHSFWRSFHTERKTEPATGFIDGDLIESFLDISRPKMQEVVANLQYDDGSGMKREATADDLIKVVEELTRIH

Experiment [3] relates to Calu-1 cells. Nature of the experiment: Anti-proliferation (viability) of NSCLC Calu-1 cells, 3 days (Table 7, FIG. 2B). The settings on record: Homo sapiens, 72 h; Calu-1 cells, 3 days, 10-point serial dilution; read-out: GI IC50 in Calu-1. An outline of the steps:
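Viability is read after treatment with compounds titrated over ten serial dilution points, with exposure lasting three days for the NSCLC line and six days for the breast cancer line.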

The subject of experiment [4] is MCF7 cells. Put plainly: Anti-proliferation (viability) of MCF7 cells (Table 7, FIG. 2B). The settings on record: Homo sapiens, MCF7, MCF7 cells, 3-6 days, 10-point serial dilution; read-out: GI IC50 in MCF-7.
The target of experiment [5] is T1, CDK4. Put plainly: HiBiT detection of HiBiT-tagged CDK4 protein level in MCF7 cells, 16 hours (Table 8). Details: expressed in transfected cells; host or cells: MCF7. Particulars: MCF7 cells stably expressing HiBiT tagged target proteins. How it is done:
HiBiT detection system quantitatively measures total amounts of HiBiT-tagged proteins using a luminescent based method. MCF7 cells stably expressing HiBiT tagged target proteins were treated with heterobifunctional compounds at indicated concentrations for 16 hours, then lysed with Nano-Glo HiBiT Lytic detection reagents.
Target sequence in this assay (P11802 whole entry): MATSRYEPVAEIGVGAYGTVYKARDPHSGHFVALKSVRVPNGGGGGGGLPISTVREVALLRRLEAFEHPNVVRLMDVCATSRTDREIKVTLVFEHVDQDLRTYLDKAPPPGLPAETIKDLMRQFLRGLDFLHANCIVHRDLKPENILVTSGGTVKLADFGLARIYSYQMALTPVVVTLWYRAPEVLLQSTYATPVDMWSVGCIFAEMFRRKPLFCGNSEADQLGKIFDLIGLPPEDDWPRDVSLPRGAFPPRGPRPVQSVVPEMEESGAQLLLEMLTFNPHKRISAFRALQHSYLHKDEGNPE
Target sequence in this assay (P24385 whole entry partner): as the sequence (P24385 whole entry partner) above
Target sequence in this assay (Q16531 2-1140 limits assumed): as the sequence (Q16531 2-1140 limits assumed) above
For orientation: HiBiT is a short tag that completes a luciferase, so light tracks the accessible tagged protein.

Take `CC(=O)c1c(C)c2cnc(Nc3ccc(N4CCN(CC(=O)NCCCCCNc5nc(C#N)ccc5C(=O)Nc5ccc(N(C)C)nn5)CC4)cn3)nc2n(C2CCCC2)c1=O` [CPD-28, 2-((5-(2-(4-(6-((6-Acetyl-8-cyclopentyl-5-methyl-7-oxo-7,8-dihydropyrido[2,3-d]pyrimidin-2-yl)amino)pyridin-3-yl)piperazin-1-yl)acetamido)pentyl)amino)-6-cyano-N-(6-(dimethylamino)pyridazin-3-yl)nicotinamide]: the 50% inhibitory concentration (IC50) in experiment [1] is not above 50 nM. In experiment [2], this compound displayed an inhibition at 0.04 µM of 50 to 80% and an inhibition at 0.2 µM of 50 to 80%. The 50% inhibitory concentration (IC50) in experiment [3] fell in the range of 10 to 50 nM.
In the case of `CNc1ccc(C(=O)Nc2ccc(N(C)C)nn2)c(NC(C)CCCCNC(=O)CN2CCN(c3ccc(Nc4ncc5c(C)c(C(C)=O)c(=O)n(C6CCCC6)c5n4)nc3)CC2)n1` (stereo not drawn) [CPD-29, 2-((6-(2-(4-(6-((6-Acetyl-8-cyclopentyl-5-methyl-7-oxo-7,8-dihydropyrido[2,3-d]pyrimidin-2-yl)amino)pyridin-3-yl)piperazin-1-yl)acetamido)hexan-2-yl)amino)-N-(6-(dimethylamino)pyridazin-3-yl)-6-(methylamino)nicotinamide], in experiment [1], the IC50 is 50 to 100 nM. In experiment [2], the inhibition at 0.04 µM was 50 to 80% and the inhibition at 0.2 µM is more than 80%. Besides, the 50% inhibitory concentration (IC50) in experiment [3] is 10 to 50 nM.
In the same order, the values of `CNc1ccc(C(=O)Nc2ccc(N(C)C)nn2)c(NC2CC(CCNC(=O)N3CCN(c4ccc(Nc5ncc6c(C)c(C(C)=O)c(=O)n(C7CCCC7)c6n5)nc4)CC3)C2)n1` (stereo not drawn) [CPD-35, 4-(6-((6-Acetyl-8-cyclopentyl-5-methyl-7-oxo-7,8-dihydropyrido[2,3-d]pyrimidin-2-yl)amino)pyridin-3-yl)-N-(2-(3-((3-((6-(dimethylamino)pyridazin-3-yl)carbamoyl)-6-(methylamino)pyridin-2-yl)amino)cyclobutyl)ethyl)piperazine-1-carboxamide] are 50 to 100 nM, 50 to 80%, 50 to 80% and 10 to 50 nM.
For the compound `CNc1ccc(C(=O)Nc2ccc(N(C)C)nn2)c(NCCCCNC(=O)CCN2CCN(c3ccc(Nc4ncc5c(C)c(C(C)=O)c(=O)n(C6CCCC6)c5n4)nc3)CC2)n1` [CPD-37, 2-((4-(3-(4-(6-((6-acetyl-8-cyclopentyl-5-methyl-7-oxo-7,8-dihydropyrido[2,3-d]pyrimidin-2-yl)amino)pyridin-3-yl)piperazin-1-yl)propanamido)butyl)amino)-N-(6-(dimethylamino)pyridazin-3-yl)-6-(methylamino)nicotinamide], the figures for the IC50 in experiment [1] and in experiment [3] were not below 100 nM and 10 to 50 nM, respectively. In experiment [2], this compound displayed an inhibition at 0.04 µM of 50 to 80%. This compound had an inhibition at 0.2 µM in experiment [2] of 50 to 80%.
As for `CNc1ccc(C(=O)Nc2ccc(C)c(C3CC3)n2)c(NC2CC3(CC(NC(=O)CN4CCN(c5ccc(Nc6ncc7c(C)c(C(C)=O)c(=O)n(C8CCCC8)c7n6)nc5)CC4)C3)C2)n1` (stereo not drawn) [CPD-57, 2-((6-(2-(4-(6-((6-Acetyl-8-cyclopentyl-5-methyl-7-oxo-7,8-dihydropyrido[2,3-d]pyrimidin-2-yl)amino)pyridin-3-yl)piperazin-1-yl)acetamido)spiro[3.3]heptan-2-yl)amino)-N-(6-cyclopropyl-5-methylpyridin-2-yl)-6-(methylamino)nicotinamide], in experiment [1], the IC50 is 50 to 100 nM. In experiment [2], this compound registered an inhibition at 0.04 µM of 30 to 50% and an inhibition at 0.2 µM of more than 80%. The half-maximal inhibitory concentration (IC50) in experiment [3] was 10 to 50 nM.
Taken in the same sequence, the figures for `CNc1ccc(C(=O)Nc2cccc(C)n2)c(NC2CC3(CC(NC(=O)CN4CCN(c5ccc(Nc6ncc7c(C)c(C(C)=O)c(=O)n(C8CCCC8)c7n6)nc5)CC4)C3)C2)n1` (stereo not drawn) [CPD-75, 2-((6-(2-(4-(6-((6-Acetyl-8-cyclopentyl-5-methyl-7-oxo-7,8-dihydropyrido[2,3-d]pyrimidin-2-yl)amino)pyridin-3-yl)piperazin-1-yl)acetamido)spiro[3.3]heptan-2-yl)amino)-6-(methylamino)-N-(6-methylpyridin-2-yl)nicotinamide] were not above 50 nM, 30 to 50%, 50 to 80% and 10 to 50 nM.
Taken in the same sequence, the figures for `CNc1ccc(C(=O)Nc2ccc(N(C)C)nn2)c(NC2CC(CNC(=O)CCN3CCN(c4ccc(Nc5ncc6c(C)c(C(C)=O)c(=O)n(C7CCCC7)c6n5)nc4)CC3)C2)n1` (stereo not drawn) [CPD-80, 2-((3-((3-(4-(6-((6-Acetyl-8-cyclopentyl-5-methyl-7-oxo-7,8-dihydropyrido[2,3-d]pyrimidin-2-yl)amino)pyridin-3-yl)piperazin-1-yl)propanamido)methyl)cyclobutyl)amino)-N-(6-(dimethylamino)pyridazin-3-yl)-6-(methylamino)nicotinamide] were not above 50 nM, 50 to 80%, 50 to 80% and not above 10 nM.
As to `CNc1ccc(C(=O)Nc2ccc(N(C)C)nn2)c(NC2CCN(C(=O)CCN3CCN(c4ccc(Nc5ncc6c(C)c(C(C)=O)c(=O)n(C7CCCC7)c6n5)nc4)CC3)C2)n1` (stereo not drawn) [CPD-218, 2-((1-(3-(4-(6-((6-acetyl-8-cyclopentyl-5-methyl-7-oxo-7,8-dihydropyrido[2,3-d]pyrimidin-2-yl)amino)pyridin-3-yl)piperazin-1-yl)propanoyl)pyrrolidin-3-yl)amino)-N-(6-(dimethylamino)pyridazin-3-yl)-6-(methylamino)nicotinamide], the IC50 in experiment [4] and in experiment [1] was 50 to 100 nM throughout. The inhibition at 0.04 µM in experiment [2] is 50 to 80%. The inhibition at 0.2 µM in experiment [2] lay within 50 to 80%.
Consider `CNc1ccc(C(=O)Nc2ccc(N(C)C)nn2)c(NC2CCC(NC(=O)CN3CCN(c4ccc(Nc5ncc6c(C)c(C(C)=O)c(=O)n(C7CCCC7)c6n5)nc4)CC3)C2)n1` (stereo not drawn) [CPD-219, 2-((3-(2-(4-(6-((6-acetyl-8-cyclopentyl-5-methyl-7-oxo-7,8-dihydropyrido[2,3-d]pyrimidin-2-yl)amino)pyridin-3-yl)piperazin-1-yl)acetamido)cyclopentyl)amino)-N-(6-(dimethylamino)pyridazin-3-yl)-6-(methylamino)nicotinamide], for which, in experiment [4], the IC50 fell in the range of 50 to 100 nM. Moreover, the concentration for half-maximal inhibition (IC50) in experiment [1] is 50 to 100 nM. In experiment [2], this compound displayed an inhibition at 0.04 µM of 50 to 80% and an inhibition at 0.2 µM of 50 to 80%.
Take `CC(=O)c1c(C)c2cnc(Nc3ccc(N4CCN(CC(=O)NC5CC6(C5)CC(Nc5nc(NC(C)C)ccc5C(=O)Nc5cn(C)c(C7CC7)n5)C6)CC4)cn3)nc2n(C2CCCC2)c1=O` (stereo not drawn) [CPD-222, 2-((6-(2-(4-(6-((6-acetyl-8-cyclopentyl-5-methyl-7-oxo-7,8-dihydropyrido[2,3-d]pyrimidin-2-yl)amino)pyridin-3-yl)piperazin-1-yl)acetamido)spiro[3.3]heptan-2-yl)amino)-N-(2-cyclopropyl-1-methyl-1H-imidazol-4-yl)-6-(isopropylamino)nicotinamide]: the IC50 in experiment [4] is 50 to 100 nM. In addition, the half-maximal inhibitory concentration (IC50) in experiment [1] is not above 50 nM. Further, in experiment [2], the inhibition at 0.04 µM lay within 50 to 80% and the inhibition at 0.2 µM is 50 to 80%.
On to `CC(=O)c1c(C)c2cnc(Nc3ccc(N4CCN(CC(=O)NC5CC6(C5)CC(Nc5nc(NC(C)C)ccc5C(=O)Nc5cc(C)n(C)n5)C6)CC4)cn3)nc2n(C2CCCC2)c1=O` (stereo not drawn) [CPD-253, 2-((6-(2-(4-(6-((6-acetyl-8-cyclopentyl-5-methyl-7-oxo-7,8-dihydropyrido[2,3-d]pyrimidin-2-yl)amino)pyridin-3-yl)piperazin-1-yl)acetamido)spiro[3.3]heptan-2-yl)amino)-N-(1,5-dimethyl-1H-pyrazol-3-yl)-6-(isopropylamino)nicotinamide], for which the IC50 in experiment [4] was less than 50 nM. Moreover, the concentration for half-maximal inhibition (IC50) in experiment [1] was not below 100 nM. Moreover, in experiment [2], the inhibition at 0.04 µM is less than 30% and the inhibition at 0.2 µM was less than 30%. The activity at 0.01 µM in experiment [5] (10 nM, read-out: % CDK4 Relative Level (10 nM)) is more than 85%. Besides, the activity at 0.1 µM in experiment [5] (100 nM, read-out: % CDK4 Relative Level (100 nM)) fell in the range of 55 to 85%.
As to `CNc1ccc(C(=O)Nc2cn(C)c(C3CC3)n2)c(NC2CC(CNC(=O)CN3CCN(c4ccc(Nc5ncc6c(C)c(C(C)=O)c(=O)n(C7CCCC7)c6n5)nc4)CC3)C2)n1` (stereo not drawn) [CPD-254, 2-((3-((2-(4-(6-((6-acetyl-8-cyclopentyl-5-methyl-7-oxo-7,8-dihydropyrido[2,3-d]pyrimidin-2-yl)amino)pyridin-3-yl)piperazin-1-yl)acetamido)methyl)cyclobutyl)amino)-N-(2-cyclopropyl-1-methyl-1H-imidazol-4-yl)-6-(methylamino)nicotinamide], the half-maximal inhibitory concentration (IC50) is more than 100 nM in experiment [4] and not below 100 nM in experiment [1].

Usually IC50 stands for the point on the concentration scale where inhibition reaches its midpoint. One may read the inhibition as the relative decrease from the control value, in per cent. A high value points to a strong effect.
